# Laboratory results: patent publication US8044052B2, “Biaryl ether urea compounds” (Pfizer Inc., priority 2006, dated 2011)
# Biological target: T1, Human FAAH (Homo sapiens, UniProt O00519)
# T1 construct: made in house
# T1 sequence (O00519 1-579): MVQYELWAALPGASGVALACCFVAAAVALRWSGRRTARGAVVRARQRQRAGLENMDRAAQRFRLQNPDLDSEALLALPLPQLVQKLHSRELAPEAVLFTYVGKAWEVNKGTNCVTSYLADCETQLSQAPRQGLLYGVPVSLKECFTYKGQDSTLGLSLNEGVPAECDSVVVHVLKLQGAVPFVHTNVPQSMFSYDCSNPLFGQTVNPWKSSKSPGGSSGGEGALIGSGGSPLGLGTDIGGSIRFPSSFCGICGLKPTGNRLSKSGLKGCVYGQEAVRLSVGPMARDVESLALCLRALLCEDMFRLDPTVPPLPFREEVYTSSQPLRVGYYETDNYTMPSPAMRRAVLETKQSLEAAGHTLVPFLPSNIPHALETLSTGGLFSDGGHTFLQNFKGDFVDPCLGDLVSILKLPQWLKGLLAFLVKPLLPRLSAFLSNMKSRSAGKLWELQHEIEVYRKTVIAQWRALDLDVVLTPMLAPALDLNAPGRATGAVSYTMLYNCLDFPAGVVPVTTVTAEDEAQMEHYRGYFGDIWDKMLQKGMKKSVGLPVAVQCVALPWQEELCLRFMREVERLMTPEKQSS
# Assay: FAAH assay (glutamate dehydrogenase-coupled, oleamide substrate, absorbance at 340 nm)
# Type: biochemical
# Conditions: irreversible inhibition, 1-4 nM FAAH, pH 7.4, 30° C., 90 min, read-out: hFAAH kinact/Ki
# Experimental: The FAAH assay was carried out in 384-well clear polystyrene plates in a total volume of 50 μl per well. All percents are by volume. To each well, was placed the reaction mixture (40 μl) containing 1-4 nM FAAH, 50 mM NaPi, pH 7.4, 3 mM α-ketoglutarate, 0.15 mM NADH, 7.5 U/ml glutamate dehydrogenase, 2 mM ADP, 1 mM EDTA, and 0.1% Triton X-100 (The concentration shown for each component is the final concentration in the assay). […] This was immediately followed by the addition of 5 μl oleamide (500 μM) dissolved in 75% EtOH/25% DMSO and the reaction mixture was mixed for 1.5 min. The final concentrations of DMSO and EtOH in the assay were each 7.5%.
# Initial velocity data (V) were obtained from the slopes of the initial progressive curves. They were plotted as a function of substrate concentration and fit to the Michaelis-Menten equation (1) using Prism (GraphPad Software, Inc., San Diego, Calif.) software to obtain Km and Vmax values.
# To obtain potencies of irreversible inhibitors, progressive curves consistent with first order inhibition kinetics (two-step irreversible inhibition mechanism) were fit to equation (2) by nonlinear least squares regressions to determine kobs values at each inhibitor concentration, where [P]t is the absorbance at time t, V0 is a constant related to the steady state rate of the uninhibited reaction, and kobs is the first order rate constant for enzyme inactivation. The inhibitor dissociation constant (Ki) and the first order rate
# [formula] constant of enzyme inactivation at infinite inhibitor concentration (kinact) were then obtained by fitting the kobs vs. [I] curves to equation (3).
row,SMILES,kinact/KI
1,"O=C(Nc1cccnn1)N1CCC(=Cc2cc(Oc3ccc(C(F)(F)F)cn3)cc(C3CC3)c2)CC1 [Example 64, 4-(3-cyclopropyl-5-(5-(trifluoromethyl)pyridin-2-yloxy)benzylidene)-N-(pyridazin-3-yl)piperidine-1-carboxamide]",417 M⁻¹ s⁻¹
2,"O=C(Nc1cccnc1)N1CCC(=C(Br)c2cccc(Oc3ccc(C(F)(F)F)cn3)c2)CC1 [Example 66, 4-(bromo(3-(5-(trifluoromethyl)pyridin-2-yloxy)phenyl)methylene)-N-(pyridin-3-yl)piperidine-1-carboxamide]",1560 M⁻¹ s⁻¹
3,"CC(=C1CCN(C(=O)Nc2cccnc2)CC1)c1cccc(Oc2ccc(C(F)(F)F)cn2)c1 [Example 67, N-(pyridin-3-yl)-4-(1-(3-(5-(trifluoromethyl)pyridin-2-yloxy)phenyl)ethylidene)piperidine-1-carboxamide]",5980 M⁻¹ s⁻¹
4,"O=C(Nc1cccnc1)N1CCC(=C(c2ccccc2)c2cccc(Oc3ccc(C(F)(F)F)cn3)c2)CC1 [Example 68, 4-(phenyl(3-(5-(trifluoromethyl)pyridin-2-yloxy)phenyl)methylene)-N-(pyridin-3-yl)piperidine-1-carboxamide]",206 M⁻¹ s⁻¹
5,"O=C(Nc1cccnc1)N1CCC(=C(F)c2cccc(Oc3ccc(C(F)(F)F)cn3)c2)CC1 [Example 69, 4-(fluoro(3-(5-(trifluoromethyl)pyridin-2-yloxy)phenyl)methylene)-N-(pyridin-3-yl)piperidine-1-carboxamide]",2300 M⁻¹ s⁻¹
6,"COc1ccc(NC(=O)N2CCC(=C(F)c3cccc(Oc4ccc(C(F)(F)F)cn4)c3)CC2)cn1 [Example 71, 4-(fluoro(3-(5-(trifluoromethyl)pyridin-2-yloxy)phenyl)methylene)-N-(6-methoxypyridin-3-yl)piperidine-1-carboxamide]",777 M⁻¹ s⁻¹
7,"Cc1ccnc(Oc2cccc(C=C3CCN(C(=O)Nc4cccnc4)CC3)c2)c1 [Example 72, 4-{3-[(4-methylpyridin-2-yl)oxy]benzylidene}-N-pyridin-3-ylpiperidine-1-carboxamide]",681 M⁻¹ s⁻¹
8,"Cc1ccnc(Oc2cccc(C=C3CCN(C(=O)Nc4cccnn4)CC3)c2)c1 [Example 73, 4-{3-[(4-methylpyridin-2-yl)oxy]benzylidene}-N-pyridazin-3-ylpiperidine-1-carboxamide]",963 M⁻¹ s⁻¹

# Further lines, results first:
row,kinact/KI,SMILES
1,1370 M⁻¹ s⁻¹,"O=C(Nc1cccnc1)N1CCC(=Cc2cc(Br)cc(Oc3ccc(C(F)(F)F)cn3)c2)CC1 [Example 62, 4-(3-bromo-5-(5-(trifluoromethyl)pyridin-2-yloxy)benzylidene)-N-(pyridin-3-yl)piperidine-1-carboxamide]"
2,2530 M⁻¹ s⁻¹,"O=C(Nc1cccnn1)N1CCC(=Cc2cc(Br)cc(Oc3ccc(C(F)(F)F)cn3)c2)CC1 [Example 63, 4-(3-bromo-5-(5-(trifluoromethyl)pyridin-2-yloxy)benzylidene)-N-(pyridazin-3-yl)piperidine-1-carboxamide]"
3,6710 M⁻¹ s⁻¹,"O=C(Nc1cccnc1)N1CCC(=Cc2cc(F)cc(Oc3ccc(C(F)(F)F)cn3)c2)CC1 [Example 65, 4-(3-fluoro-5-(5-(trifluoromethyl)pyridin-2-yloxy)benzylidene)-N-(pyridin-3-yl)piperidine-1-carboxamide]"
4,3620 M⁻¹ s⁻¹,"O=C(Nc1cnoc1)N1CCC(=Cc2cccc(Oc3ccc(C(F)(F)F)cn3)c2)CC1 [Example 75, N-isoxazol-4-yl-4-(3-{[5-(trifluoromethyl)pyridin-2-yl]oxy}benzylidene)piperidine-1-carboxamide]"
5,339 M⁻¹ s⁻¹,"Cn1ccc(NC(=O)N2CCC(=Cc3cccc(Oc4ccc(C(F)(F)F)cn4)c3)CC2)n1 [Example 77, N-(1-methyl-1H-pyrazol-3-yl)-4-(3-{[5-(trifluoromethyl)pyridin-2-yl]oxy}benzylidene)piperidine-1-carboxamide]"
6,2100 M⁻¹ s⁻¹,"Cn1ncc(NC(=O)N2CCC(=Cc3cccc(Oc4ccc(C(F)(F)F)cn4)c3)CC2)n1 [Example 78, N-(2-methyl-2H-1,2,3-triazol-4-yl)-4-(3-{[5-(trifluoromethyl)pyridin-2-yl]oxy}benzylidene)piperidine-1-carboxamide]"
